Values of other authors, collected in patent US8008021B2, “N-terminal truncation of cardiac troponin subunits and their roles in cardiovascular disease” (Evanston Northwestern Healthcare, priority 2006, dated 2011).

Key:
μ-calpain = target: T1, μ-calpain (Homo sapiens, UniProt P07384); conditions: reference 43, cited from earlier work; for Ki: read-out: apparent inhibition constant Ki against μ-calpain
T1 sequence (P07384 1-714): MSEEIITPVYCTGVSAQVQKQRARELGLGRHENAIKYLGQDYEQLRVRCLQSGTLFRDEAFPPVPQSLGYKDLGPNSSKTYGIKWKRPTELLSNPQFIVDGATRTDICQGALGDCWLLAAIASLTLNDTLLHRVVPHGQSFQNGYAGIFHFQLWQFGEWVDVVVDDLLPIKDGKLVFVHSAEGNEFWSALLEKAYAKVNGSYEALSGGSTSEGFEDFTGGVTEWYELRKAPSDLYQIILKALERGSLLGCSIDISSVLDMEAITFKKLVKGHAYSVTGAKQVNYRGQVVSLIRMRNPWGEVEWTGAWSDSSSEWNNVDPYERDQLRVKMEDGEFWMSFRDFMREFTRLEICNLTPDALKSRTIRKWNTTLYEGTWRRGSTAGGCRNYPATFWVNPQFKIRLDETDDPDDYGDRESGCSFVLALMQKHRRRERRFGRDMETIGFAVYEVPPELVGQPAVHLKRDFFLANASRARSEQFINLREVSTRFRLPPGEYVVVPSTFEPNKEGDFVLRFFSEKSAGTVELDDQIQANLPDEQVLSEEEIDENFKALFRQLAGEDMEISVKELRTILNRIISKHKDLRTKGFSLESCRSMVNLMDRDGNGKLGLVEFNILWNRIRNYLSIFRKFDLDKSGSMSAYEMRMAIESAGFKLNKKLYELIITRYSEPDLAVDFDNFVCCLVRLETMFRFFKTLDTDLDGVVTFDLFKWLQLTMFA
T1 sequence (P04632 1-268 partner): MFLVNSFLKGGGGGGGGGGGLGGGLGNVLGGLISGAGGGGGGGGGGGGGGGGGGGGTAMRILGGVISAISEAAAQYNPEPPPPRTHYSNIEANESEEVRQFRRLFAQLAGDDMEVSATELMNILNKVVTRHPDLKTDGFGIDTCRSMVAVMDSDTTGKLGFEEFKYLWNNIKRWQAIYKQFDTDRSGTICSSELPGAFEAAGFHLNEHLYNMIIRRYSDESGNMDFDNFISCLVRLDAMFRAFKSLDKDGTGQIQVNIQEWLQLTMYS

m-calpain = target: T2, m-calpain (Homo sapiens, UniProt P17655); conditions: reference 43; read-out: apparent inhibition constant Ki against m-calpain; cited from earlier work
T2 sequence (P17655 1-700): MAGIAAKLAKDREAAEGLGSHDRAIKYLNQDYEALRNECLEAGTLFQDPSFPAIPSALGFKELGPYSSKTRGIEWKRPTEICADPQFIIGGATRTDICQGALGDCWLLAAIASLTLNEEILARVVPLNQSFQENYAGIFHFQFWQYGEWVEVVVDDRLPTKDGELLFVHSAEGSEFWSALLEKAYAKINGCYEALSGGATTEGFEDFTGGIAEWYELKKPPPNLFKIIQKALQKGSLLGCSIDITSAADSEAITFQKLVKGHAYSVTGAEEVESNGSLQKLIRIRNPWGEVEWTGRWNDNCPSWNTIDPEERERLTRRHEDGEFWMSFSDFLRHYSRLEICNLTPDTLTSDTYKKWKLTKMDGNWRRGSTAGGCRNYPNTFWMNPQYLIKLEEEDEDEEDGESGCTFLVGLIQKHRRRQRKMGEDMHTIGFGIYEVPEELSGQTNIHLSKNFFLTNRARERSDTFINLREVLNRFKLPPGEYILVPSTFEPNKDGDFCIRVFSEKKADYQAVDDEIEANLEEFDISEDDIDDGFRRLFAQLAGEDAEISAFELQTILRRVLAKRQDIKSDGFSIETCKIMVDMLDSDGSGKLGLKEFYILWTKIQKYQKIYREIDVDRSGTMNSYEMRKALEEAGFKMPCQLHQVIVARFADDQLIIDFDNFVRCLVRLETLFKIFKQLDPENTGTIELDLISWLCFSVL
T2 sequence (P04632 1-268 partner): T1 sequence (P04632 1-268 partner)

| SMILES | selectivity for μ-calpain over m-calpain (μ-calpain) | Ki (μ-calpain) | Ki (m-calpain) |
| --- | --- | --- | --- |
| O=C(O)/C(S)=C/c1c[nH]c2ccc(F)cc12 [PD151746] | 20 fold | 260 ± 30 nM | 5330 ± 770 nM |
| O=C(O)/C(S)=C/c1ccc(I)cc1 [PD150606] |  | 210 ± 10 nM | 370 ± 30 nM |
